Measurements reported in patent publication US20260232608A1, “AMINOTHIOLS FOR THE TREATMENT OF CONDITIONS CHARACTERIZED BY PROTEIN MISFOLDING OR AGGREGATION, MITOCHONDRIAL DYSFUNCTION, OR CHRONIC INFLAMMATION” (Obvia Pharmaceuticals, Ltd., priority 2023, published 2026).
“Also recorded” adds a separate entry of the source.

Columns and labels:
[1] = pKa of the two PrC-210 amines from NMR pH titration; format: physicochemical; settings: pH titrations between pH 9.0 and 13.0; FIG. 3 legend: 3 pH units above physiological pH
Protocol: (§1) We established the chemical structure profile of PrC-210 using Nuclear Magnetic Resonance (NMR) spectroscopy experiments. […] This structural stability of the PrC-210 mono-thiol form in this pH range remained for at least the observed 24 hours. […] In our pH titrations between pH 9.0 and 13.0, we saw clear structural changes to PrC-210; from these progressive changes, we calculated that the pKas of the two PrC-210 amines are all substantially above the pH (pH 7.2) of physiological conditions (FIG. 3).

[2] = system: DBA/1J mice; assay: Paw swelling in DBA/1J mice immunized against collagen III; format: in vivo, mouse
Description: To show further, that this suppression of chronic inflammation applies generally to other organs than the brain, DBA/1J mice immunized against collagen III where treated systemically and topically with PrC-210.

[3] = Consumption of PrC-210 thiol by hydrogen peroxide, with or without ammonium acetate; format: physicochemical; settings: pH 7
Protocol: We believe that the increased reactivity of the thiol in the presence of negative charges, such as ammonium acetate, also occurs when PrC-210-thiol is in close proximity to other reactive structures, such as hydrogen peroxide. We have studied hydrogen peroxide, as it is a non-radical oxygen species with a much longer half-life than superoxide. We added hydrogen peroxide to an aqueous 5 mM solution of PrC-210 thiol at pH 7.

[4] = system: SOD1^G93A mice; assay: Body weight of SOD1G93A ALS mice; format: in vivo, mouse; settings: systemic PrC-210 0.1 MTD, IP
Description: This experiment was designed to illuminate whether PrC-210 is able to stop the progression of diseases which are based on protein aggregation, such as Amyotrophic Lateral Sclerosis (ALS). […] Weight loss was progressive and was in exponential decline along with onset of ALS motor symptoms. […] As ALS pathology is based upon protein aggregation, the findings in this experiment support our inventive concept that PrC-210 is able to suppress protein misfolding and thereby suppress the pathology of these diseases. This invention applies to all neuronal, organ specific and systemic diseases which are caused by protein aggregations, such as neurodegenerative diseases, local and systemic amyloidosis, Type II diabetes, cataract of the eye, etc.

[5] = system: caspase 1, complement 3 (C3); assay: Inflammation markers in mouse brain after 8.68 Gy, PrC-210 given 24 hours after irradiation; format: in vivo, ICR mice; settings: 8.68 Gy whole-body, 0.3 MTD i.p. 24 hours after irradiation
Protocol: To visualize the effect of radiation on the immune response of the mouse brain, ICR mice received 8.68 Gy whole-body radiation (FIG. 10) at Time “0.” O.3MTD, i.p. PrC-210 was administered 24 hours after irradiation. […] The same applied to the inflammation marker, complement 3 (C3) (FIG. 12B). […] Most important, this suppression was a direct suppression of the immune response and was not an indirect suppression through protection of proteins and lipids against damage. Radiation-induced protein damage would have triggered an apoptotic response, as it can be seen in the second peak of caspase 3/7 in FIG. 12C. Therefore, this experiment teaches that PrC-210 is able to enter the brain and directly suppresses post-irradiation inflammation.

[6] = 1H NMR stability of PrC-210 in deuterated water under pH titration; format: physicochemical
Protocol: as §1

[7] = within its therapeutic window; cited from earlier work
[8] = system: Cytochrome C; assay: Cytochrome C release in mouse heart after 8.68 Gy, PrC-210 given 24 hours after irradiation; format: in vivo; settings: PrC-210 0.3 MTD given 24 hours post-irradiation
Protocol: Different from the first peak after 12 hours, this peak is not due to DNA damage and activation of the intrinsic apoptotic pathway, as there is neither an associated p53 nor 8-oxo-dG increase at 48 hours post-irradiation (data not shown), nor an activation of the intrinsic apoptotic pathway (FIG. 11B). This peak represents a massive damage of complex IV of the respiratory chain, which is located at the inner mitochondrial membrane. […] This discovery teaches us, that PrC-210 enters mitochondria and protects the proteins and lipids of the mitochondrial membranes against insults, insults which result in the release of cytochrome C. This invention applies to all diseases which are caused by damage of the mitochondria, such as aging and all age-related diseases, neurodegenerative diseases, diseases of the cardio-vascular system, such as arteriosclerosis, damage of the heart valves or main arteries, and in general to diseases caused by damage of the mitochondria membranes, the mitochondria DNA and proteins.

[9] = 1H NMR stability / thiol reactivity of PrC-210 with ammonium acetate (disulfide formation); format: physicochemical
[10] = Pharmacokinetics study with [14]C-labeled PrC-210, intravenous, male rats; format: in vivo; settings: after 48 hr
Description: We were also interested to see whether PrC-210-cysteine disulfide formation is transient or permanent; permanent PrC-210 hetero-disulfide formation with cellular proteins would be expected to have an impact on protein function and could translate into unwanted, toxic, side effects and should be seen as PrC-210 residues showing up as urinary or fecal metabolites. […] C labeled PrC-210, we found only minimal metabolism of PrC-210 (1.07%) after 48 hr (FIG. 7, unpublished data). It is well described that i) disulfide binding is reversible (see, e.g., Koji Aoyama, Int. J. Mol. Sci. 2021, 22 (9), 5010) and ii) that there are also two highly efficient thiol reducing systems in the cell (see, e.g., Cumming et al., The Journal of Biological Chemistry vol. 279, No. 21, Issue of May 21, pp. 21749-21758, 2004), which reduce disulfide bonds between glutathione and proteins in non-oxidative stress situations (see, e.g., Koji Aoyama, Int. J. Mol. Sci. 2021, 22 (9), 5010). Based upon both our experimental findings and the published literature, it would then be logical that PrC-210 disulfide bonds with proteins would be governed by the same chemical and enzymatic processes.

[11] = system: Caspase 8, Caspase 3/7; assay: Apoptosis markers in mice irradiated with 8.68 Gy, PrC-210 given before irradiation; format: in vivo, mouse
Protocol: To examine PrC-210-conferred protection in an animal model, we irradiated mice with 8.68 Gy and treated them with a 0.5MTD dose of PrC-210 30 minutes before irradiation. Normally, lethal radiation with 8.68 Gy leads to massive DNA damage and activation of the intrinsic apoptotic pathway. […] This means that the radiation insult didn't trigger a significant activation of the intrinsic apoptotic pathway nor did it trigger a mitotic arrest with p53 activation. […] This apoptotic suppression and protection lasted for the entire observation time of six days, which is a sign, that PrC-210 was still present after six days. When we looked at mouse plasma in the same experiment, we saw the same 6 days apoptotic suppression as in the brain in caspase 3/7 levels (FIG. 9F).

[12] = system: C57 mice; assay: EAE model, paralysis score after immunization with MOG peptide; format: in vivo, mouse
Protocol: To show, that PrC-210 suppresses neuroinflammation which is caused by an autoimmune induction of the disease, PrC-210 was applied 24 hours before immunization of C57 mice against MOG peptide (FIG. 13A), and immediately after first paralysis symptoms developed from the autoimmunization against myelin.

[13] = 0.5 MTD PrC-210 before irradiation

## CNCC(CS)CNC [PrC-210]
[1]
  pKas of the two amines of PrC-210: > 7.2
[2]; 370 mM PrC-210 applied topically, started at paw swelling score higher than 10
  swelling of paws: significantly reduced
[2]; twice weekly intraperitoneal injection of 0.075 MTD PrC-210, started with first paw symptoms
  swelling of paws: significantly reduced
[3]; ammonium acetate (5 mM) added seconds before hydrogen peroxide (0.5 mM), 5 mM PrC-210 thiol
  effect of ammonium acetate on hydrogen peroxide consumption of PrC-210 thiol: significant enhancement; also recorded: significantly enhanced
[3]; aqueous 5 mM PrC-210 thiol
  consumption of free PrC-210 thiol by hydrogen peroxide: dose-dependent consumption
[4]
  body weight / weight loss: immediate plateau in body weight loss
[5]
  inflammation marker complement 3 (C3) in mouse brain: significantly suppressed
[5]; starting eight days after radiation
  inflammasome marker caspase 1 in mouse brain: significantly suppressed
[6]; deuterated water, pH 9.0, 72 hrs
  stability at high pH after 72 hours (1H NMR): significant change; also recorded: some instability
[6]; water, pH 9.0, 72 hr, TCEP added, data not shown
  effect of the thiol blocker TCEP on PrC-210 stability: doesn't influence the PrC-210 stability
[7]
  toxic side effects: no toxic side effects
[8]
  cytochrome C release in heart muscle (second peak, 48 hours post-irradiation): suppress cytochrome C release to background
[9]; aqueous solution with ammonium acetate, ammonium acetate added to aqueous PrC-210 mono-thiol solution, pH 7.2 (FIG. 6A)
  half-life: 3.1 h
[9]; deuterated water with ammonium acetate and thiol blocker TCEP, pH 7.0, 24 hours
  stability of PrC-210 with ammonium acetate and TCEP (1H NMR): remains stable
[9]; deuterated water with ammonium acetate, pH 7.0, 1 hour and 24 hours
  structural change of PrC-210 with ammonium acetate (1H NMR): substantial structural changes within hours
[9]; water, previously observed
  PrC-210 half-life in water: days
[10]
  metabolism of PrC-210: 1.07%
[11]; 0.5 MTD PrC-210 30 min before irradiation
  Caspase 3/7 level in mouse plasma: suppressed to background
[11]; 0.5 MTD PrC-210, entire observation time
  duration of apoptotic suppression and protection in brain: six
[11]; 0.5 MTD PrC-210, same experiment
  duration of apoptotic suppression (caspase 3/7) in mouse plasma: 6 days
[11]; [13]
  Caspase 3/7 level in mouse brain: suppressed to background
  Caspase 8 level in mouse brain: suppressed to background
[12]; twice weekly intraperitoneal PrC-210 started 24 hours before immunization with MOG peptide
  development and severity of paralysis symptoms: significantly suppressing
[12]; twice weekly intraperitoneal PrC-210 started when first paralysis symptoms were observed
  development and severity of paralysis symptoms: significantly suppressing
